These are literature values, as cited in US4332794A, “6"-Deoxydibekacin, 4",6"-dideoxydibekacin and 1-N-aminoacyl derivatives thereof, and the production of these new compounds” (Zaidan Hojin Biseibutsu Kagaku Kenkyu Kai, priority 1979, dated 1982).

The test system of data set [1] is dibekacin-resistant bacteria. The following applies: prior art; cited from earlier work.
For a further data set, the system named is bacteria. The following applies: Japanese patent application No. 54733/79; cited from earlier work.
For data set [2] the following is noted: Japanese patent application No. 54733/79; cited from earlier work.

`NCC[C@H](O)C(=O)N[C@@H]1C[C@H](N)[C@@H](O[C@H]2O[C@H](CN)CC[C@H]2N)[C@H](O)[C@H]1O[C@H]1O[C@H](CO)[C@@H](O)[C@H](N)[C@H]1O` [1-N-(L-4-amino-2-hydroxybutyryl)-3',4'-dideoxykanamycin B]: in data set [1], the antibacterial activity entry is recorded as “effective against dibekacin-resistant bacteria”. Turning to `C[C@H]1O[C@H](O[C@@H]2[C@@H](O)[C@H](O[C@H]3O[C@H](CN)[C@@H](O)[C@H](O)[C@H]3O)[C@@H](N)C[C@H]2NC(=O)[C@@H](O)CCN)[C@H](O)[C@@H](N)[C@@H]1O` [6"-deoxyamikacin, 1-N-(L-4-amino-2-hydroxybutyryl)-6"-deoxykanamycin A], in the data set with bacteria, the “antibacterial activity compared to amikacin” value is “antibacterial activity as high as that of amikacin”. The oto-toxicity entry in data set [2] is given as “low oto-toxicity”. Consider `C[C@@H]1C[C@H](N)[C@@H](O)[C@@H](O[C@@H]2[C@@H](O)[C@H](O[C@H]3O[C@H](CN)[C@@H](O)[C@H](O)[C@H]3O)[C@@H](N)C[C@H]2NC(=O)[C@@H](O)CCN)O1` [4",6"-dideoxyamikacin, 1-N-(L-4-amino-2-hydroxybutyryl)-4",6"-dideoxykanamycin A], for which the “antibacterial activity compared to amikacin” value in the data set with bacteria is reported as “antibacterial activity as high as that of amikacin”. Besides, the oto-toxicity entry in data set [2] is “low oto-toxicity”.
